Data from paper PMC12128972, “TYRA-300, an FGFR3-selective inhibitor, promotes bone growth in two FGFR3-driven models of chondrodysplasia” (JCI Insight, 2025).
Values joined by “and” are separate entries in the source; they are usually repeats but may differ in a detail not shown here. Equal entries are not always repeated.

Columns and labels:
[1] = tested on: Fgfr3^N534K/+ mouse model of HCH; assay: Fgfr3N534K/+ mice: long bone length; assay type: in vivo; settings: 2.4 mg/kg dose, data not shown
[2] = tested on: femurs of Fgfr3^Y367C/+ mice; assay: Fgfr3Y367C/+ mice: microCT of femurs (SOC bone volume, BMD, BV/TV); assay type: in vivo, mouse; settings: 1.2 mg/kg s.c. daily for 15 days
Description: Finally, measurements of trabecular bone quality were performed using μCT imaging of the femurs (Supplemental Figure 2).
Femurs were placed in 70% ethanol at 4°C and measured on the Skyscan-1272 (Bruker) with the following parameters: 60 kV, 166 μA, 0.25 mm aluminum filter. Within the femurs, the trabecular parameters were obtained at 5 μm voxel resolution in a ROI (normalized to 7% of the femur length in size) beginning 255 μm proximal to the distal growth plate for controls, 25 μm for Fgfr3^Y367C/+ + vehicle, and 35 μm for Fgfr3^Y367C/+ + TYRA-300. The BMD and BV/TV of the metaphysis were measured using on a set of sections located within the secondary spongiosa under the growth plate. The measured volume was chosen to be proportional to the femur length (typically 630 μm for control animals and 310 μm for Fgfr3^Y367C/+ + vehicle and 415 μm for Fgfr3^Y367C/+ + TYRA-300.) Scan reconstruction was done using NRecon (v 1.7.4.6). Scan orientation was done using DataViewer (v 1.7.0.1). 3D Analysis for trabecular bone was performed using CT Analyzer (v 1.23.0.2).

wild-type C57BL/6J mice = assay: Wild-type mouse growth velocity study; assay type: in vivo; design: nasoanal length, individual mice: unit not given here; settings: for femur length by calipers, individual mice / tibia length by calipers, individual mice: final day of treatment (8 weeks of age), in mm (unit assumed); for femurs longer than vehicle / tibias longer than vehicle: 4 weeks of treatment
Description: To determine the in vivo effect of FGFR3 inhibition under normal physiologic conditions, TYRA-300 was tested in a growth velocity assay in wild-type mice ([32]). In this study, wild-type C57BL/6J mice were dosed orally with TYRA-300 once daily from 4 to 8 weeks of age. […] Based on the doses evaluated for infigratinib in oncology and ACH, a lower dose was thought to be more appropriate for long-term treatment of pediatric growth–related conditions. We therefore initially explored doses in the 8 to 14 mg/kg range in this model. […] Specifically, after treatment with 12 mg/kg TYRA-300, the tibias were on average 3.9% longer than the tibias of mice that received treatment with vehicle, and the femurs were on average 5.0% longer after treatment; additionally, with 14 mg/kg TYRA-300, the tibias were 6.4% longer and the femurs were 8.2% longer. There was no difference in body weight among the treatment groups (data not shown).
At 21 days of age, female C57BL/6J mice (The Jackson Laboratory) were subject to nasoanal length and nasotail length measurement while under anesthesia. Tail length was calculated by subtracting nasoanal length from nasotail length. Body weights were also recorded. One week later, at 28 days of age, nasoanal lengths and body weights were measured again and mice were randomized to treatment groups of 12 mice per group according to nasoanal length. TYRA-300 was dissolved in 30% hydroxypropyl-β-cyclodextrin for administration by oral gavage. Mice were dosed orally with TYRA-300 or vehicle control once daily (QD) for 4 weeks, and nasoanal lengths and body weights were monitored once weekly, along with daily clinical observations. Mouse tibias and femurs were collected and measured with calipers at the end of the study.

[3] = tested on: Fgfr3^N534K/+ mouse model of HCH; assay: Fgfr3N534K/+ mice: long bone length; assay type: in vivo
Description: To explore the effectiveness of TYRA-300 in an additional model of FGFR3-related chondrodysplasia, TYRA-300 was evaluated in a Tg-CMV^Cre/+/Fgfr3^N534K/+ mouse model of HCH ([42]). This model is driven by the Fgfr3 N534K mutation, which corresponds to the human FGFR3 N540K mutation ([9], [43]). This model closely recapitulates the skeletal phenotype of HCH in humans, with a milder disproportionate short stature phenotype ([42]). […] Because the goal of treatment with TYRA-300 is to […] Fgfr3 signaling levels, Fgfr3^N534K/+ mice were administered a lower dose of 1.8 mg/kg TYRA-300 daily for the full study. Mice were treated for 21 days, from 3 to 24 days of age. Treatment was started at an older age in the HCH model than in the ACH model, as children with HCH are often diagnosed later than children with ACH.
Tg-CMV^Cre/+/Fgfr3^N534K/+ mice were tattooed and assigned to treatment groups within each litter at 3 days of age (wild-type mice, Fgfr3^N534K/+ mice treated with vehicle, or Fgfr3^N534K/+ mice treated with 1.8 mg/kg TYRA-300). TYRA-300 was dissolved in aqueous HCl (3.5 mM) containing 5% DMSO and administered subcutaneously to Fgfr3^N534K/+ mice (n = 9) for 21 days. The vehicle was administered to wild-type (n = 12) or Fgfr3^N534K/+ mice (n = 11) for 21 days. Subcutaneous administration was used for this study rather than oral gavage due to the size of the mice. Clinical observations, nasoanal length, and tail length measurements were performed every 3 days, and body weights were collected daily.
Whole body x-ray images were taken of all animals by Faxitron specimen radiography MX-20 (Faxitron X-Ray LLC) following terminal sacrifice. The length of the L4–L6 lumbar vertebra segment was also measured for each animal using calipers, and the height of the L5 vertebral body was measured from Alcian blue/Sirius red images. Long bones and the skull were then excised, and their dimensions were measured using calipers (VWRi819-0013, VWR International). The transverse and sagittal diameters of the foramen magnum were also measured using calipers for the Fgfr3^Y367/+ model, and measured using the μCT images for the Fgfr3^N534K/+ model.

[4] = 12 mg/kg oral daily from week 4, week 3 of age (before treatment)
[5] = 12 mg/kg oral daily from week 4, week 4 of age (start of treatment)
[6] = 12 mg/kg oral daily from week 4, week 5 of age
[7] = 12 mg/kg oral daily from week 4, week 6 of age
[8] = 12 mg/kg oral daily from week 4, week 7 of age
[9] = 12 mg/kg oral daily from week 4, week 8 of age
[10] = 14 mg/kg oral daily from week 4, week 3 of age (before treatment)
[11] = 14 mg/kg oral daily from week 4, week 4 of age (start of treatment)
[12] = 1.8 mg/kg daily s.c. for 21 days, 3 to 24 days of age
[13] = Fgfr3N534K/+ mice + TYRA-300, individual animal values, in mm (unit assumed)

C[C@@H](Oc1ccc2[nH]nc(-c3ccc(N4CC5(C4)CN(S(C)(=O)=O)C5)nc3)c2c1)c1c(Cl)cncc1Cl [TYRA-300]
phenotypic observations in preliminary dose exploration [1]: phenotypic signs consistent with the Fgfr3^–/– model were observed
bone volume of the SOC (microCT) vs vehicle [2]: significant increase
increase in bone mineral density (BMD) vs vehicle ([2]; femoral metaphyses): 21.4%
increase in bone volume-to-tissue volume ratio (BV/TV) vs vehicle ([2]; femoral metaphyses): 73.3%
nasoanal length and tibia and femur length vs vehicle (wild-type C57BL/6J mice; 8 mg/kg and 10 mg/kg, data not shown, P < 0.05): significant increases
tail length and tibia and femur length vs vehicle (wild-type C57BL/6J mice; 12 mg/kg and 14 mg/kg oral once daily, 4 weeks): increased significantly and dose-dependently
nasoanal length, individual mice (wild-type C57BL/6J mice; [4]): 6.5 and 7.5 (2×) and 7.3 and 7 (3×) and 6.8 (2×) and 6.2 and 7.2 and 6
tail length, individual mice (wild-type C57BL/6J mice; [4]): 5.7 and 6.3 and 6 (2×) and 6.2 and 5.6 and 5.5 and 6.4 and 6.6 and 5.9 and 5.3 and 5.8
nasoanal length, individual mice (wild-type C57BL/6J mice; [5]): 7.7 (3×) and 8.2 and 7.8 (3×) and 8 (2×) and 7.2 and 8.3 and 7.3
tail length, individual mice (wild-type C57BL/6J mice; [5]): 5.9 and 7.2 (2×) and 6.9 (2×) and 6.7 and 6.8 and 6.3 and 6.4 (2×) and 5.7 and 6.5
nasoanal length, individual mice (wild-type C57BL/6J mice; [6]): 8.2 and 8.6 (3×) and 8.5 (2×) and 8.7 and 8.3 (3×) and 9 and 7.7
tail length, individual mice (wild-type C57BL/6J mice; [6]): 6.8 and 7.2 (3×) and 7.3 (2×) and 7.1 (2×) and 6.7 and 7.4 and 7.8 and 6.5
nasoanal length, individual mice (wild-type C57BL/6J mice; [7]): 8.6 (2×) and 8.8 (2×) and 8.7 (3×) and 9.2 and 9.1 and 9 and 9.3 and 8.4
tail length, individual mice (wild-type C57BL/6J mice; [7]): 7.3 and 7.8 (2×) and 7.9 and 7.7 (3×) and 7.6 (2×) and 8 and 8.2 and 7
nasoanal length, individual mice (wild-type C57BL/6J mice; [8]): 8.8 and 9.1 (2×) and 9 (3×) and 9.4 and 9.3 and 9.5 and 10 and 9.2 and 8.7
tail length, individual mice (wild-type C57BL/6J mice; [8]): 7.9 (2×) and 8 (3×) and 8.2 and 7.7 (2×) and 8.3 and 8.5 and 7.3 and 8.1
nasoanal length, individual mice (wild-type C57BL/6J mice; [9]): 9.2 (3×) and 9.3 (5×) and 9.4 and 9.5 and 10 and 8.8
tail length, individual mice (wild-type C57BL/6J mice; [9]): 7.8 and 8.2 and 7.9 and 8.1 (4×) and 8.3 and 8 and 8.5 and 8.6 and 7.5
femur length by calipers, individual mice (wild-type C57BL/6J mice; 12 mg/kg oral daily): 13.78 and 13.37 and 14.79 and 13.97 and 13.86 and 12.93 and 14.23 and 13.91 and 13.8 and 13.51 and 13.98
tibia length by calipers, individual mice (wild-type C57BL/6J mice; 12 mg/kg oral daily): 15.08 and 16.34 and 16.3 and 17.19 and 16.6 and 15.75 and 16.27 and 16.06 and 16.41 and 16.46 and 17
femurs longer than vehicle (wild-type C57BL/6J mice; 12 mg/kg oral once daily): 5.0%
tibias longer than vehicle (wild-type C57BL/6J mice; 12 mg/kg oral once daily): 3.9%
nasoanal length, individual mice (wild-type C57BL/6J mice; [10]): 6.6 and 7.6 (2×) and 7.3 (2×) and 6.7 and 6.3 and 7.1 and 7.2 (2×) and 6.8 and 6.9
tail length, individual mice (wild-type C57BL/6J mice; [10]): 5.5 (2×) and 6 (2×) and 6.4 (2×) and 6.1 and 5.3 and 5.7 and 5.6 (3×)
nasoanal length, individual mice (wild-type C57BL/6J mice; [11]): 7.7 (2×) and 8.2 (2×) and 7.8 (4×) and 8 (2×) and 7.3 and 7.2
tail length, individual mice (wild-type C57BL/6J mice; [11]): 6.3 and 6.9 (2×) and 7 (2×) and 6.8 and 6 (2×) and 6.4 (2×) and 6.6 and 6.7
nasoanal length, individual mice (wild-type C57BL/6J mice; 14 mg/kg oral daily from week 4, week 5 of age): 8.7 (2×) and 8.5 and 8.6
tail length, individual mice (wild-type C57BL/6J mice; 14 mg/kg oral daily from week 4, week 5 of age, in cm (unit assumed)): 7 and 7.6 and 7.4 and 7.5
femur length by calipers, individual mice (wild-type C57BL/6J mice; 14 mg/kg oral daily): 14.47 and 14.13 and 13.58 and 13.93 and 13.04 and 14.9 and 14.56 and 14.74 and 14.08 and 15.12 and 14.91 and 13.6
tibia length by calipers, individual mice (wild-type C57BL/6J mice; 14 mg/kg oral daily): 16.57 and 16.39 and 16.89 and 16.61 and 16.95 and 17.24 and 16.1 and 17.47 and 16.69 and 16.27
increase in nasoanal length vs vehicle (wild-type C57BL/6J mice; 14 mg/kg oral once daily, 4 to 8 weeks of age): 7.3%
femurs longer than vehicle (wild-type C57BL/6J mice; 14 mg/kg oral once daily): 8.2%
tibias longer than vehicle (wild-type C57BL/6J mice; 14 mg/kg oral once daily): 6.4%
body weight among the treatment groups (wild-type C57BL/6J mice; oral once daily, data not shown): no difference
increase in femur length vs vehicle [3, 12]: 3.70%
increase in humerus length vs vehicle [3, 12]: 3.22%
increase in tibia length vs vehicle [3, 12]: 3.75%
increase in ulna length vs vehicle [3, 12]: 5.03%
source data of Figure 4A (sheet "4A"): long bone length, bone not given [3, 13]: 12.31 and 12.55 and 12.375 and 11.91 and 12.485 and 12.9 and 12.58 and 12.185 and 11.555
source data of Figure 4B (sheet "4B"): long bone length, bone not given [3, 13]: 10.06 and 10.16 and 10.36 and 9.8 and 10.2 and 10.18 and 10.1 and 10.15 and 9.47
source data of Figure 4C (sheet "4C"): long bone length, bone not given [3, 13]: 10.705 and 10.605 and 11.015 and 10.35 and 10.8 and 10.795 and 10.61 and 11.13 and 10.195
source data of Figure 4D (sheet "4D"): long bone length, bone not given [3, 13]: 8.28 and 8.42 and 8.455 and 8.1 and 8.32 and 8.43 and 8.22 and 8.35 and 8.08
average normalization of long bone length toward wild-type ([3]; HCH model, 1.8 mg/kg): 25%
